Measured values taken from patent US20190374554A1, “USE OF OXYGENATED CHOLESTEROL SULFATES (OCS) TO TREAT INFLAMMATORY SKIN DISEASE AND SKIN LESIONS” (Virginia Commonwealth University, priority 2016, published 2019).
“And” between values parts separate entries of the source, which are not always exact repeats. Identical values can stand only once.

Assays:
Hannover Wistar rats = assay: Two-week subcutaneous (SC) injection study in rats; assay type: in vivo
Procedure: In a separate study, Hannover Wistar rats (n=12/sex/dose group) received daily SC injections of a solution of 30 mg/mL of 25HC3S sodium salt in vehicle (250 mg/mL hydroxypropyl-β-cyclodextrin in 10 mM sodium phosphate buffer in sterile water) for 2 weeks. Dose levels of 0 (vehicle), 15, 45 and 150 mg/kg of 25HC3S sodium salt were administered in dose volumes of 5.0, 0.5, 1.5 and 5.0 mL/kg. Following 14 days of dose administration, all rats were euthanized and necropsied

Beagle dogs = assay: Two-week SC injection study in dogs; assay type: in vivo
Procedure: In a separate study, Beagle dogs (n=4/sex/dose group) received daily SC injections for 2 weeks. The solution that was tested included 30 mg/mL of 25HC3 S sodium salt in vehicle (250 mg/mL hydroxypropyl-β-cyclodextrin in 10 mM sodium phosphate buffer). Dose levels of 0 (vehicle), 3, 10 and 30 mg/kg of 25HC3S were administered in dose volumes of 1.0, 0.1, 0.33 and 1.0 mL/kg. Following 14 days of dose administration, all dogs were euthanized and necropsied.

[1] = Infusion compatibility: 25HC3S diluted in 0.9% sodium chloride infusion bag and eluted through infusion sets (potency, osmolality, pH, appearance); assay type: physicochemical; conditions: for After Storage in Infusion Bag and Collection from Infusion Set % Remaining Compared to T = 0 / After Storage in Infusion Bag and Collection from Infusion Set Concentration / After Storage in Infusion Bag and Collection from Infusion Set Osmolality / After Storage in Infusion Bag and Collection from Infusion Set pH: 0.9% sodium chloride, approx. 0.28 mg/mL
Procedure: A physical and chemical compatibility study was conducted at a 30 mg, 48 mg and 300 mg 25HC3S dose in 5% dextrose and 0.9% sodium chloride infusion bags. Descriptions of the two kinds of infusion sets tested with 25HC3S product diluted in 5% dextrose and 0.9% sodium chloride are listed in Table 15. The tubing in catalog number 2H8480 infusion set was composed of polyvinylchloride (PVC), while the tubing in catalog number 2C8858 was polyethylene lined except for a short pump segment (approximately 12 inches) which was composed of PVC.
25HC3S for Injection and Vehicle for 25HC3S for Injection, that had been stored at 2-8° C. for approximately 16 months, were used for the compatibility study. After constitution, 30 mg (1.0 mL of constituted product), 48 mg (1.6 mL of constituted product) or 300 mg (10 mL of constituted product) were added to 100 mL infusion bags of 5% dextrose and 0.9% sodium chloride, mixed thoroughly, and stored for 24 hours at room temperature and at 2-8° C. […] Taking into consideration the overfill per infusion bag and the additional volume introduced by adding the constituted 25HC3S product to each bag, the expected concentrations of 25HC3S were 0.28 mg/mL, 0.44 mg/mL, and 2.56 mg/mL in the infusion bags. Two kinds of infusion sets were then attached to the drug containing infusion bags, and the entire contents were eluted through the infusion sets at approximately 50 mL/hour at room temperature. Samples were collected from the 25HC3S prepared infusion bags at T=0 and at 24 hours, and from the total eluent passed through the infusion sets, and tested for 25HC3S concentration using HPLC. Solution visual appearance, osmolality (using method USP<785>), and pH (using method USP<791>) were also measured on the collected samples.

[2] = 0.9% sodium chloride bag, approx. 0.28 mg/mL 25HC3S
[3] = 0.9% sodium chloride bag, approx. 0.44 mg/mL 25HC3S
[4] = 0.9% sodium chloride bag, approx. 2.56 mg/mL 25HC3S
[5] = bag 24 h at 2-8° C., Baxter 2C8858
[6] = bag 24 h at 2-8° C., Baxter 2H8480
[7] = bag 24 h at 25° C., Baxter 2C8858

For `C[C@H](CCCC(C)(C)O)[C@H]1CC[C@H]2[C@@H]3CC=C4C[C@@H](OS(=O)(=O)[O-])CC[C@]4(C)[C@H]3CC[C@]12C.[Na+]` [Formulation 25HC3S, 5-cholesten-3, 25-diol, 3-sulfate], the “higher mean liver weights compared to controls” value (Hannover Wistar rats; male and female rats, 150 mg/kg daily SC, 2 weeks) was 10%, the “lower mean serum cholesterol compared to vehicle controls” value (Hannover Wistar rats; male rats, 150 mg/kg daily SC, after 2 weeks) was 22% and the “Cytoplasmic vacuolation of the proximal tubules of the kidneys” value (Hannover Wistar rats; rats, 150 mg/kg daily SC, 2 weeks, vs vehicle controls) was “severity was similar in vehicle control and rats”. For the same compound, the “collagen degeneration and hemorrhage at the injection sites” value (Hannover Wistar rats; rats, daily SC 2 weeks, compared to vehicle (FIG. 1A)) was “tended to be lower”, the “alveolar macrophages in the lungs” value (Hannover Wistar rats; rats, daily SC 2 weeks, seen in vehicle controls and drug-treated rats) was “minimal increase” and the “swelling at the site of injection” value (Beagle dogs; daily SC 2 weeks, compared to vehicle only (FIG. 1C)) was “markedly decreased”. The “fibroplasia, hemorrhage, inflammation and necrosis in injection sites: incidence and severity” value (Beagle dogs; daily SC 3, 10, 30 mg/kg, 2 weeks (FIG. 1B)) was “generally higher in vehicle controls compared to drug-treated dogs”, the “24 Hours at 2-8° C. Concentration” value [1, 2] was 0.275 mg/mL and the “24 Hours at 2-8° C. Osmolality” value [1, 2] was 276 mmol/kg. The “24 Hours at 2-8° C. pH” value [1, 2] was 5.87 and 5.99, the “24 Hours at 25° C. Concentration” value [1, 2] was 0.272 mg/mL and 0.274 mg/mL and the “24 Hours at 25° C. Osmolality” value [1, 2] was 275 mmol/kg and 277 mmol/kg. The “24 Hours at 25° C. pH” value [1, 2] was 5.93 and 5.92, the “T = 0 Conc.” value [1, 2] was 0.273 mg/mL and 0.274 mg/mL and 0.275 mg/mL and the “T = 0 Osmolality” value [1, 2] was 278 mmol/kg and 277 mmol/kg. The “T = 0 pH” value [1, 2] was 6.39 and 6.43 and 6.45 and 6.40, the “24 Hours at 2-8° C. % Remaining Compared to T = 0” value [1, 3] was “(100.0%)” and the “24 Hours at 2-8° C. Concentration” value [1, 3] was 0.434 mg/mL and 0.425 mg/mL. For the same compound, the “24 Hours at 2-8° C. Osmolality” value [1, 3] was 281 mmol/kg, the “24 Hours at 2-8° C. pH” value [1, 3] was 7.43 and 7.19 and the “24 Hours at 25° C. % Remaining Compared to T = 0” value [1, 3] was “(100.0%)”. For the same compound, the “24 Hours at 25° C. Concentration” value [1, 3] was 0.434 mg/mL and 0.424 mg/mL, the “24 Hours at 25° C. Osmolality” value [1, 3] was 280 mmol/kg and the “24 Hours at 25° C. pH” value [1, 3] was 7.33 and 7.41. For the same compound, the “T = 0 Conc.” value [1, 3] was 0.434 mg/mL and 0.424 mg/mL and 0.425 mg/mL, the “T = 0 Osmolality” value [1, 3] was 277 mmol/kg and 279 mmol/kg and 284 mmol/kg and 280 mmol/kg and the “T = 0 pH” value [1, 3] was 7.30 and 7.43 and 7.21 and 7.44. The “24 Hours at 2-8° C. Concentration” value [1, 4] was 2.510 mg/mL and 2.520 mg/mL, the “24 Hours at 2-8° C. Osmolality” value [1, 4] was 283 mmol/kg and the “24 Hours at 2-8° C. pH” value [1, 4] was 5.93 and 5.96. For the same compound, the “24 Hours at 25° C. Concentration” value [1, 4] was 2.500 mg/mL and 2.525 mg/mL, the “24 Hours at 25° C. Osmolality” value [1, 4] was 282 mmol/kg and the “24 Hours at 25° C. pH” value [1, 4] was 6.01 and 5.86. The “T = 0 Conc.” value [1, 4] was 2.450 mg/mL and 2.530 mg/mL and 2.525 mg/mL, the “T = 0 Osmolality” value [1, 4] was 282 mmol/kg and 281 mmol/kg and the “T = 0 pH” value [1, 4] was 6.20 and 6.10 and 6.07 and 6.11. The “After Storage in Infusion Bag and Collection from Infusion Set % Remaining Compared to T = 0” value [1, 5] was “(100.0%)”, the “After Storage in Infusion Bag and Collection from Infusion Set Concentration” value (“After Storage … from Infusion Set Concentration” for short) [1, 5] was 0.275 mg/mL and the “After Storage in Infusion Bag and Collection from Infusion Set Osmolality” value (from here on “After Storage … from Infusion Set Osmolality”) [1, 5] was 276 mmol/kg. The “After Storage in Infusion Bag and Collection from Infusion Set pH” value (shortened to “After Storage … from Infusion Set pH”) [1, 5] was 5.78, the “After Storage in Infusion Bag and Collection from Infusion Set % Remaining Compared to T = 0” value [1, 6] was “(100.4%)” and the “After Storage … from Infusion Set Concentration” value [1, 6] was 0.275 mg/mL. The “After Storage … from Infusion Set Osmolality” value [1, 6] was 277 mmol/kg, the “After Storage … from Infusion Set pH” value [1, 6] was 5.81 and the “After Storage in Infusion Bag and Collection from Infusion Set % Remaining Compared to T = 0” value [1, 7] was “(100.0%)”. For the same compound, the “After Storage … from Infusion Set Concentration” value [1, 7] was 0.274 mg/mL, the “After Storage … from Infusion Set Osmolality” value [1, 7] was 276 mmol/kg and the “After Storage … from Infusion Set pH” value [1, 7] was 5.83. The “After Storage in Infusion Bag and Collection from Infusion Set % Remaining Compared to T = 0” value ([1]; bag 24 h at 25° C., Baxter 2H8480) was “(99.6%)”.
